Assay results taken from paper PMC7583056, “Synthesis, Characterisation and In Vitro Anticancer Activity of Catalytically Active Indole-Based Half-Sandwich Complexes” (Molecules, 2020).
Like-named read-outs stand apart in the source and are kept apart here.

Tests used:
A2780 cells = assay: Chemosensitivity assay (MTT) in A2780 cells; type: cell-based; settings: for IC50: 24 h exposure + 48 h recovery, MTT, mean ± SD, read-out: IC50 A2780
From the text: (§1) The antiproliferative activity of the ind-py ligand and of complexes 1–4 against ovarian cancer A2780 (cisplatin sensitive) and A2780cisR (cisplatin resistant) cell lines was studied. The IC50 values obtained for all the complexes are shown in Table 2, together with values for cisplatin, which was used as a positive control (untreated cells for 100% viability as negative control). […] One of the major limitations of existing anticancer drugs is their poor selectivity towards cancer cells. Comparing the response of the cancer cell lines to the normal PNT2 cells provides a preliminary indication towards the selectivity of the compounds.
(§2) In vitro chemosensitivity tests were performed against A2780, A2780cisR and PNT2 cells. Cells were routinely maintained as monolayer cultures in RPMI medium supplemented with 10% foetal calf serum, penicillin (100 I.U./mL) and streptomycin (100 μg/mL), sodium pyruvate (1 mM) and L-glutamine (2 mM). For chemosensitivity studies, cells were incubated in 96-well plates at a concentration of 7.5 × 10^3 cells per well and the plates were incubated for 24 h at 37 °C and a 5% CO2 humidified atmosphere prior to drug exposure.
(§3) Complexes were dissolved in DMSO to provide stock solutions, which were further diluted with media to provide a range of final concentrations. Drug-media solutions were added to cells (the final concentration of DMSO was less than 1% (v/v) in all cases) and incubated for 24 h at 37 °C and 5% CO2 humidified atmosphere. The drug-media was removed from the wells and the cells were washed with PBS (100 μL, twice), and 100 μL of complete fresh media were added to each well. The plates were further incubated for 48 h at 37 °C in a 5% CO2 humidified atmosphere to allow for a period of recovery. 3-(4,5-dimethylthiazol-2-yl)-2,5-diphenyltetrazolium bromide (MTT) (20 μL, 2.5 mg/mL) was added to each well and incubated for 2 h at 37 °C and 5% CO2 humidified atmosphere. All solutions were then removed and 100 μL of DMSO was added to each well in order to dissolve the purple formazan crystals. A Thermo Scientific Multiskan EX microplate photometer was used to measure the absorbance in each well at 570 nm. Cell survival was determined as the absorbance of treated cells divided by the absorbance of controls and expressed as a percentage. The IC50 values were determined from plots of % survival against drug concentration. Each experiment was repeated in triplicates of triplicates and a mean value was obtained and stated as IC50 (μM) ± SD. Cisplatin was also used as a positive control.

[1] = Stability and aquation in MeOD/D2O by 1H-NMR; type: physicochemical; settings: MeOD/D2O 1:1 v/v, 1.1 mM, 298 K, over 24 h
Protocol: Owing to the limited aqueous solubility of the complexes, all the reactivity experiments were performed using a mixture MeOD/D2O (1:1 v/v) as a solvent. The stability of complexes 1–4 in MeOD/D2O was studied via ^1H-NMR spectroscopy over a period of 24 h. […] The stability of complexes 1–4 in dimethylsulfoxide (DMSO;1.1 mM) was also studied by ^1H-NMR spectroscopy over a period of 24 h (Figure S1). […] The ligand ind-py is also stable in MeOD/D2O over 24 h (Figure S1E).
Aquation of the monodentate ligand (X) is a common behaviour for half-sandwich complexes of the type [(arene/Cp)M(NUN)X] and it is usually considered an activation step, which allows further reactions with the corresponding targets. To study if aquation of complexes 1–4 occurs in MeOD/D2O (1:1 v/v), experiments in the presence of either one molar equivalent of silver nitrate (to force the release of the monodentate Cl^- ligand), or NaCl (to block hydrolysis), were performed.
Complexes 1–4 were dissolved in MeOD (2.2 mM) and diluted to a final concentration of 1.1 mM with either MeOD or D2O. ^1H-NMR spectra were recorded at t ≤ 10 min, 12 h and 24 h. The samples were then reacted with either 1 mol. equiv. of silver nitrate to obtain the fully hydrolysed species or NaCl to block hydrolysis.

PNT2 cells = assay: Chemosensitivity assay (MTT) in PNT2 cells; type: cell-based; settings: for IC50: 24 h exposure + 48 h recovery, MTT, mean ± SD
From the text: as §1, §2, §3

A2780cisR cells = assay: Chemosensitivity assay (MTT) in A2780cisR cells; type: cell-based; settings: for IC50: 24 h exposure + 48 h recovery, MTT, mean ± SD
From the text: as §1, §2, §3

SMILES | Cytotoxicity against A2780 (in words) (A2780 cells; Figure S14) | IC50 (A2780 cells; Homo sapiens, A2780) | Stability in MeOD/D2O [1] | Cytotoxicity against PNT2 (in words) (PNT2 cells; Figure S14) | IC50 (PNT2 cells; Homo sapiens, PNT2) | Cytotoxicity against A2780cisR (in words) (A2780cisR cells; Figure S14) | IC50 (A2780cisR cells; Homo sapiens, A2780cisR) | IC50 (A2780 cells) | IC50 (PNT2 cells) | IC50 (A2780cisR cells)
c1ccc(-c2cc3ccccc3[nH]2)nc1 [Ind-py, 2-(2-pyridinyl)-1H-indole, reference compound] | non-cytotoxic | > 100 µM | stable | non-cytotoxic | > 100 µM | non-cytotoxic | > 100 µM |  |  | 
N.N.[Cl][Pt][Cl] [Cisplatin, reference compound] |  |  |  |  |  |  |  | 10.3 ± 0.5 µM | 43 ± 3 µM | 22.4 ± 0.5 µM
